# Assays:
# [1] = tested on: odor of p-cresol; assay: Sensory test of cross-adaptation, target odor p-cresol; type: in vivo, human; settings: panelists, test sample smelled before target sample, FIG. 6C
# Method: (§1) The cross-adaptation effect induced by the odorous substance evaluated in Example 2 was estimated by a sensory test. A glass bottle (No. 11, manufactured by Hakuyo Glass Co., Ltd., capacity: 110 mL) was charged with a target odorous substance to be used as a target sample. As the target odorous substance, muscone, guaiacol or p-cresol was used. As the muscone, a cotton ball soaked with 1 mg of muscone was used. As the guaiacol and p-cresol, 1 mL of a mineral oil (Sigma-Aldrich) solution in a concentration of 10 ppm was used. In a similar manner, a glass bottle was charged with a test substance to be used as a test sample. As the test sample, 5 mg of an ethyl vanillin powder, or 1 mL of a mineral oil (Sigma-Aldrich) solution of p-cresyl acetate, p-cresyl isobutyrate or p-methyl quinoline prepared to a concentration of 1,000 ppm was used.
# (§2) The sensory test was performed by a single blind method by five to eight panelists. The target sample was first presented to each panelist, who was caused to replay on the odor intensity. Next, the test sample was presented for 2 minutes or until the odor could not be perceived. Thereafter, the target sample was presented again, and the panelist was caused to replay on the odor intensity. This series of operations was defined as one set, and the sensory test was carried out with four sets per day per panelist set as the upper limit. A recess of at least 10 minutes or more was provided between the sets.
# The panelist was caused to plot the estimated intensity of the target odor on a straight line of 9.5 cm with both ends respectively provided with criteria “No odor” and “Strong odor”. A distance (A) between the position of the target odor intensity plotted in the initial estimate and the end of “No odor”, and a distance (B) between the position of the target odor intensity plotted in the second estimate and the end of “No odor” were obtained, so as to calculate percentage odor intensity of the initial estimate [B/A*100−100]. As this value is smaller, the intensity of the target odor perceived in the second estimate is suppressed stronger as compared with that in the initial estimate, namely, stronger cross-adaptation is induced. If this value is −100%, it means that the target odor was not perceived at all in the second estimate.
# [2] = biological target: T1, OR9Q2 (Homo sapiens, UniProt Q8NGE9); assay: Luciferase reporter gene assay, OR9Q2-expressing HEK293 cells; type: cell-based; settings: for responsiveness of OR9Q2 (fold increase): FIG. 2, 5B, 5C
# T1 construct: expressed in transfected cells; host or cells: HEK293
# T1 sequence (Q8NGE9 1-314): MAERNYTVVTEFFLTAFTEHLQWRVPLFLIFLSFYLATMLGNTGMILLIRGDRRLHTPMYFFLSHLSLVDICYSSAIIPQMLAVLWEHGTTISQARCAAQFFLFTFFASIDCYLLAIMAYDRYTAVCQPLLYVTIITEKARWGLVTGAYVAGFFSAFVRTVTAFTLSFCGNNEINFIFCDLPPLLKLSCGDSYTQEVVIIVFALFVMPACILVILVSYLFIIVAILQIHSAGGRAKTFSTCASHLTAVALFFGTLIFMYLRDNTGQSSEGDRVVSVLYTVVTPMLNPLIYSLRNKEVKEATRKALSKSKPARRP
# Description: (§3) On the basis of sequence information registered in GenBank, genes respectively encoding 370 human olfactory receptors shown in Tables 1-1 and 1-2 and genes respectively encoding the human olfactory receptors OR5AN1, OR10G4 and OR9Q2 (respectively set forth in SEQ ID NOS: 1, 3 and 5) were cloned. Each of the genes was cloned by the PCR using human genomic DNA person (G1521: Promega) as a template. Each gene amplified by the PCR was incorporated into a pENTR vector (Invitrogen) in accordance with the instruction, and was recombined to NotI and AscI sites produced downstream from a Flag-Rho tag sequence on a pME18S vector by using NotI and AscI sites present on the pENTR vector.
# (§4) In 1) of Example 1, HEK293 cells on which the 370 human olfactory receptors were respectively expressed were produced. A reaction solution having a composition shown in Table 2 was prepared and allowed to stand still in a clean bench for 15 minutes, and the resultant was added by 4.4 μL per well in a 384-well plate (BioCoat). Subsequently, the HEK293 cells (20×10^4 cells/cm^2) were seeded by 40 μL per well, and the resultant was cultured for 24 hours in an incubator kept at 37° C. and 5% CO2.
# (§5) In 2) of Example 1 and Examples 2 and 3, HEK293 cells in which the human olfactory receptor OR5AN1, OR10G4, OR9Q2 or OR1A1 was expressed were produced. A reaction solution having a composition shown in Table 3 was prepared and allowed to stand still in a clean bench for 15 minutes, and the resultant was added by 10 μL per well in a 96-well plate (BioCoat). Subsequently, the HEK293 cells (3×10^5 cells/cm^2) were seeded by 90 μL per well, and the resultant was cultured for 24 hours in an incubator kept at 37° C. and 5% CO2. Cells obtained under conditions for not expressing the olfactory receptor (Mock) were also prepared to be used as a control, and were used similarly in an experiment.
# (§6) The olfactory receptor expressed on the HEK293 cells increases the intracellular cAMP amount by activating adenylate cyclase in conjugation with intracellular Gαs. In the measurement of odor response in this study, luciferase reporter gene assay for monitoring the increase of the intracellular cAMP amount as a luminescence value derived from a firefly luciferase gene (fluc2P-CRE-hygro) was employed. Besides, a fused Renilla luciferase (hRluc-CMV) gene was simultaneously transferred downstream of the CMV promoter, so as to be used as an internal standard for correcting the gene transfer efficiency or an error in the number of cells. For measuring the activity of the luciferase, Dual-Glo(™) Luciferase Assay System (Promega) was used, and the measurement was performed in accordance with the operation instruction of the product. Under each of various stimulation conditions, a value fLuc/hRluc obtained by dividing a firefly luciferase-derived luminescence value by a Renilla luciferase-derived luminescence value was calculated. A value obtained by dividing a value fLuc/hRluc induced by stimulation with an odorous substance by a value fLuc/hRluc of a cell not stimulated with the odorous substance was obtained as fold increase, which was used as an index of the response intensity. A dose-response curve was analyzed using Graph Pad Prism.
# (§7) The medium was removed from each of the cultures of the olfactory receptor expressing cells produced according to Reference Example 1, and an odorous substance (muscone, guaiacol or p-cresol) was added thereto. A DMEM medium (Nacalai) containing muscone or guaiacol was added to a 384-well plate containing the culture by 30 μL per well (to a final concentration of muscone of 100 μM and of guaiacol of 1 mM). Alternatively, a CD293 medium (Invitrogen) containing p-cresol was added to a 96-well plate containing the culture by 75 μL per well (to a final concentration of 1 mM). […]
# [3] = biological target: T2, OR5AN1 (Homo sapiens, UniProt Q8NGI8); assay: Luciferase reporter gene assay, OR5AN1-expressing HEK293 cells; type: cell-based; settings: 0.3 μM to 100 μM, vs Mock cells, FIG. 3
# T2 construct: expressed in transfected cells; host or cells: HEK293
# T2 sequence (Q8NGI8 1-311): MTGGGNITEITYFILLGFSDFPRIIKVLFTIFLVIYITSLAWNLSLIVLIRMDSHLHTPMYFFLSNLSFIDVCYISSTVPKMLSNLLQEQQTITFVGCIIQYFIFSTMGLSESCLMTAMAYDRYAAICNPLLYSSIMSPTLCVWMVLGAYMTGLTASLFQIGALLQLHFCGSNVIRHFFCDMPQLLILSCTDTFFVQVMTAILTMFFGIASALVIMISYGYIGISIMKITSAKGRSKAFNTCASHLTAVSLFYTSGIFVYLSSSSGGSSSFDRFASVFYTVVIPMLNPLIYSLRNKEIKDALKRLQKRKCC
# Description: as §3, §4, §5, §6, §7
# [4] = biological target: T3, OR10G4 (Homo sapiens, UniProt Q8NGN3); assay: Luciferase reporter gene assay, OR10G4-expressing HEK293 cells; type: cell-based; settings: for responsiveness of OR10G4 (fold increase): FIG. 5A, 5C
# T3 construct: expressed in transfected cells; host or cells: HEK293
# T3 sequence (Q8NGN3 1-311): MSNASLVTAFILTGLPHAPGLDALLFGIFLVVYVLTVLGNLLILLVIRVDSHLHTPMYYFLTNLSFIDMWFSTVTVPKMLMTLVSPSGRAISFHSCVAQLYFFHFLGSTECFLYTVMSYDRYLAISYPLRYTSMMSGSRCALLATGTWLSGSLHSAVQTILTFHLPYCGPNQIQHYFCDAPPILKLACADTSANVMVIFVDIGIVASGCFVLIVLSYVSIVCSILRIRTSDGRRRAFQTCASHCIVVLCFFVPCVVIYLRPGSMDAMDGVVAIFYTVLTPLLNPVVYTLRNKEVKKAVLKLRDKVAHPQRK
# Description: as §3, §4, §5
# as §6, with “For measuring the activity of the luciferase, Dual-Glo(™) Luciferase Assay System (Promega) was used, and the measurement was performed in accordance with the operation instruction of the product.” left out, “A value obtained by dividing a value fLuc/hRluc induced by stimulation with an odorous substance by a value fLuc/hRluc of a cell not stimulated with the odorous substance was obtained as fold increase, which was used as an index of the response intensity.” left out, “Prism. […]” for “Prism.”
# [5] = biological target: T4, OR1A1 (Homo sapiens, UniProt Q9P1Q5); assay: Luciferase reporter gene assay, OR1A1-expressing HEK293 cells; type: cell-based; settings: 0.3 μM to 100 μM, vs Mock cells, FIG. 4
# T4 construct: expressed in transfected cells; host or cells: HEK293
# T4 sequence (Q9P1Q5 1-309): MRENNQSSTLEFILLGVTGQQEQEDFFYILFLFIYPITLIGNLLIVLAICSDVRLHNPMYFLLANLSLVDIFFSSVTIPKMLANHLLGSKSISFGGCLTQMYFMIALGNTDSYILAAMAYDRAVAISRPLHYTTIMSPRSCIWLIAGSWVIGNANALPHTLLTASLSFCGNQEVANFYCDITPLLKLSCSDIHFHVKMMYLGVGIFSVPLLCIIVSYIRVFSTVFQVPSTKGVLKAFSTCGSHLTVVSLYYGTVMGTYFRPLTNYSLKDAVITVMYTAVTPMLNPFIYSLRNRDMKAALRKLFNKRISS
# Description: as §3, §4
# In 2) of Example 1 and Examples 2 and 3, HEK293 cells in which the human olfactory receptor OR5AN1, OR10G4, OR9Q2 or OR1A1 was expressed were produced. […]
# The olfactory receptor expressed on the HEK293 cells increases the intracellular cAMP amount by activating adenylate cyclase in conjugation with intracellular Gαs. In the measurement of odor response in this study, luciferase reporter gene assay for monitoring the increase of the intracellular cAMP amount as a luminescence value derived from a firefly luciferase gene (fluc2P-CRE-hygro) was employed. […] Under each of various stimulation conditions, a value fLuc/hRluc obtained by dividing a firefly luciferase-derived luminescence value by a Renilla luciferase-derived luminescence value was calculated. […] A dose-response curve was analyzed using Graph Pad Prism. […]
# [6] = tested on: muscone odor; assay: Sensory test of cross-adaptation, target odor muscone; type: in vivo, human; settings: panelists, test sample smelled before target sample, FIG. 6A
# Method: as §1, §2
# The panelist was caused to plot the estimated intensity of the target odor on a straight line of 9.5 cm with both ends respectively provided with criteria “No odor” and “Strong odor”. A distance (A) between the position of the target odor intensity plotted in the initial estimate and the end of “No odor”, and a distance (B) between the position of the target odor intensity plotted in the second estimate and the end of “No odor” were obtained, so as to calculate percentage odor intensity of the initial estimate [B/A*100−100]. […]
# [7] = tested on: odor of guaiacol; assay: Sensory test of cross-adaptation, target odor guaiacol; type: in vivo, human; settings: panelists, test sample smelled before target sample, FIG. 6B
# Method: as §1
# as §2, with “A recess of at least 10 minutes or more was provided between the sets.” left out
smiles,measurement,setting,value
"Cc1ccc(OC(=O)C(C)C)cc1 [p-cresyl isobutyrate, (4-methylphenyl)2-methylpropanoate]",cross-adaptation of p-cresol odor induced by test substance,[1],induced
same,responsiveness of OR9Q2 (fold increase),[2],have responsiveness
"CC(C)(O)CCCC1=CCC(C=O)CC1 [Lyral (R), 4-(4-hydroxy-4-methyl-pentyl)-cyclohex-3-enecarbaldehyde]",activation of OR5AN1 response (fold increase),[3],did not induce the response
"O=C1CCCCCCCCCCCCCCO1 [Exaltolide (R), 16-oxacyclohexadecan-1-one]",activation of OR5AN1 response (fold increase),[3],activating the response
"Cc1ccc2ncccc2c1 [p-methyl quinoline, 6-methyl quinoline]",cross-adaptation of p-cresol odor induced by test substance,[1],induced
same,responsiveness of OR9Q2 (fold increase),[2],have responsiveness
"COc1ccccc1O [guaiacol, 2-methoxyphenol]",responsiveness of OR10G4 (fold increase),[4],had responsiveness
same,"responsiveness of OR10G4 among 370 olfactory receptors (response intensity, fold increase)","[4]; screen of 370 human olfactory receptors, guaiacol 1 mM, FIG. 1",highest responsiveness
"OCCc1ccccc1 [phenyl ethyl alcohol (PEA), 2-phenylethanol]",activation of OR1A1 response (fold increase),[5],activated
same,cross-adaptation of muscone odor induced by test substance,[6],did not induce the cross-adaptation
same,activation of OR5AN1 response (fold increase),[3],did not induce the response
"O=C1CCCCCCC=CCCCCCCC1 [Globanone, cyclohexadec-8-en-1-one]",activation of OR5AN1 response (fold increase),[3],activating the response
"Cc1ccc(O)cc1 [p-cresol, p-Cresol]",responsiveness of OR9Q2 (fold increase),[2],have responsiveness
same,concentration dependency of OR9Q2 response,"[2]; different concentrations, FIG. 2",showed response to p-cresol dependently on the concentration
same,"responsiveness of OR9Q2 among 370 olfactory receptors (response intensity, fold increase)","[2]; screen of 370 human olfactory receptors, p-cresol 1 mM, FIG. 1",highest responsiveness
CC/C=C\CCO [Cis-3-hexenol],activation of OR1A1 response (fold increase),[5],activated
same,cross-adaptation of muscone odor induced by test substance,[6],did not induce the cross-adaptation
same,activation of OR5AN1 response (fold increase),[3],did not induce the response
"CC1CC=CCCCCCCCCCC(=O)C1 (centres unmarked) [Muscenone delta, 3-methyl-5-cyclopentadecen-1-one]",activation of OR5AN1 response (fold increase),[3],activating the response
"CCOc1cc(C=O)ccc1O [ethyl vanillin, 3-ethoxy-4-hydroxybenzaldehyde]",cross-adaptation of guaiacol odor induced by test substance,[7],induced
same,responsiveness of OR10G4 (fold increase),[4],had responsiveness
"O=C1CCCCC=CCCCCCCCCCO1 [Ambrettolide, 17-oxacycloheptadec-6-en-1-one]",cross-adaptation of muscone odor induced by test substance,[6],did not induce the cross-adaptation
same,activation of OR5AN1 response (fold increase),[3],did not induce the response
"Cc1c([N+](=O)[O-])c(C)c([N+](=O)[O-])c(C(C)(C)C)c1[N+](=O)[O-] [Musk xylol, 1-tert-butyl-3,5-dimethyl-2,4,6-trinitrobenzene]",activation of OR5AN1 response (fold increase),[3],activating the response
"CC(=O)Oc1ccc(C)cc1 [p-cresyl acetate, (4-methylphenyl)acetate]",cross-adaptation of p-cresol odor induced by test substance,[1],induced
same,responsiveness of OR9Q2 (fold increase),[2],have responsiveness

# From patent publication US10738101B2, “Method for selecting odor-controlling substance” (Kao Corporation, priority 2015, dated 2020)
